Assay results as given in patent US20260374766A1, “METHODS FOR TREATING CANCER” (Antares Therapeutics, Inc., priority 2022, published 2026).

Columns and labels:
[1] = system: H1299 p53 R273H; assay: Cell Proliferation Assay (CellTiter-Glo, CTG), H1299 p53 R273H (NClH1299-inducible p53 R273H); type: cell-based; conditions: Homo sapiens, NCI-H1299, 120 h, CellTiter-Glo, H1299 p53 R273H, 5 days
Procedure, shortened: (§1)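 Tet-One inducible p53 Y220C or R273H constructs were stably introduced into NCI-H1299 by lentiviral transduction; NUGC3 was used as is. Cells (250-500 per well) were exposed to compound for 5 days, then CellTiter-Glo was added for 10 min at room temperature and IC50 was calculated from luminescence.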

[2] = system: H1299 p53 Y220C; assay: Cell Proliferation Assay (CellTiter-Glo, CTG), H1299 p53 Y220C (NClH1299-inducible p53 Y220C); type: cell-based; conditions: Homo sapiens, NCI-H1299, 120 h, CellTiter-Glo, H1299 p53 Y220C, 5 days
Procedure, shortened: as §1

[3] = system: NUGC3 p53 Y220C; assay: Cell Proliferation Assay (CellTiter-Glo, CTG), NUGC3 p53 Y220C; type: cell-based; conditions: Homo sapiens, NUGC-3, 120 h, CellTiter-Glo, NUGC3 p53 Y220C, 5 days
Procedure, shortened: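 NClH1299 lines stably transduced with Tet-inducible p53 Y220C or R273H, plus NUGC3, were treated with compound for 5 days at 250-500 cells/well. IC50 derived from CellTiter-Glo luminescent signal after 10 min room-temperature incubation.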

[4] = target: p53 Y220C (Homo sapiens, UniProt P04637, Y220C); assay: Luciferase Reporter Assay (Luc), p53 response element, NClH1299 cells with inducible p53 Y220C; type: cell-based; conditions: luciferase reporter, NClH1299 inducible p53 Y220C, 6 hour; for Emax: 10 uM tool compound as positive control; for AC50: read-out: Luc P53 Y220C AC50
Procedure, shortened: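 Luminescence readout (One-Glo, 5 min shaking at RT, read at once) after 6 h compound exposure; cells pre-induced 24 h with 0.5 ug/mL doxycycline, 5,000/well.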

[5] = target: T1, p53 Y220C mutant protein (amino acid residues 94-293) (Homo sapiens, UniProt P04637, Y220C); assay: Surface Plasmon Resonance (SPR) assay, Kd_kinetic; type: binding; conditions: SPR, kinetic KD, p53 Y220C; read-out: SPR P53 Y220C KD kinetic
T1 construct: p53 Y220C mutant protein (amino acid residues 94-293)
Procedure, shortened: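 Kd values come from fitting sensorgrams to a 1:1 binding model. Sensorgrams were recorded on a Biacore 8K at 16 or 20 °C in pH 7.5 Tris buffer with 100 mM NaCl, 1 mM DTT, detergents and 1% DMSO.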

[6] = target: T1, p53 Y220C mutant protein (amino acid residues 94-293); assay: Thermal Shift Assay (TSA), dTM; type: binding; conditions: thermal shift; for ΔTm at 10 µM: 10 uM compound, read-out: TSA P53 Y220C dTM (10 uM); for ΔTm at 100 µM: 100 uM compound, read-out: TSA P53 Y220C dTM (100 uM)
Procedure, shortened: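 Recombinant p53 Y220C core (residues 94-293) at 5 μM was incubated with 10 μM or 100 μM compound for 3 hours at 20 °C in 20 mM HEPES pH7.4, 100 mM NaCl, 0.01% Pluronic F-127, 1% DMSO with 400-fold diluted Sypro Orange. Melting was followed from 30 °C to 50 °C at 0.03 °C/second, and TM came from a Boltzmann two-state fit.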

Structure (SMILES): CNC(=O)c1cnc(NCC#Cc2nc3c(N[C@@H]4CCN(C)C[C@@H]4F)cccn3c2SC(F)(F)F)n1C [Example 161]
- IC50 [1]: ≥ 10000 nM
- IC50 [2]: 1500 to 3000 nM
- IC50 [3]: 1500 to 3000 nM
- Emax [4]: < 70%
- AC50 [4]: > 3000 nM
- Kd [5]: 10 to 100 nM
- ΔTm at 10 µM [6]: 5 to 10 °C
- ΔTm at 100 µM [6]: ≥ 10 °C

Structure (SMILES): CNC(=O)c1cccc(NCC#Cc2nc3c(N[C@@H]4CCN(C)C[C@@H]4F)cccn3c2SC(F)(F)F)n1 [Example 162]
- IC50 [1]: ≥ 10000 nM
- IC50 [2]: < 750 nM
- IC50 [3]: < 750 nM
- Emax [4]: 80 to 90%
- AC50 [4]: < 750 nM
- Kd [5]: < 10 nM
- ΔTm at 10 µM [6]: ≥ 10 °C
- ΔTm at 100 µM [6]: ≥ 10 °C

Structure (SMILES): CNC(=O)c1ccc(NCC#Cc2nc3c(N[C@@H]4CCN(C)C[C@@H]4F)cccn3c2SC(F)(F)F)cc1 [Example 163]
- IC50 [1]: ≥ 10000 nM
- IC50 [2]: < 750 nM
- IC50 [3]: < 750 nM
- Emax [4]: > 90%
- AC50 [4]: < 750 nM
- Kd [5]: < 10 nM
- ΔTm at 10 µM [6]: ≥ 10 °C
- ΔTm at 100 µM [6]: ≥ 10 °C

Structure (SMILES): COc1cc(C(N)=O)ccc1NCC#Cc1nc2c(N[C@@H]3CCN(C)C[C@@H]3F)cccn2c1SC(F)(F)F [Example 165]
- IC50 [1]: 8000 to 10000 nM
- IC50 [2]: < 750 nM
- IC50 [3]: < 750 nM
- Emax [4]: > 90%
- AC50 [4]: < 750 nM
- Kd [5]: < 10 nM
- ΔTm at 10 µM [6]: ≥ 10 °C
- ΔTm at 100 µM [6]: ≥ 10 °C

Structure (SMILES): COc1ccc(C(N)=O)nc1NCC#Cc1nc2c(N[C@@H]3CCN(C)C[C@@H]3F)cccn2c1SC(F)(F)F [Example 166]
- IC50 [1]: ≥ 10000 nM
- IC50 [2]: < 750 nM
- IC50 [3]: < 750 nM
- Emax [4]: 80 to 90%
- AC50 [4]: < 750 nM
- Kd [5]: < 10 nM
- ΔTm at 10 µM [6]: ≥ 10 °C
- ΔTm at 100 µM [6]: ≥ 10 °C

Structure (SMILES): CNC(=O)c1ccc(OC)c(NCC#Cc2nc3c(N[C@@H]4CCN(C)C[C@@H]4F)cccn3c2SC(F)F)c1 [Example 167]
- IC50 [1]: < 5000 nM
- IC50 [2]: < 750 nM
- IC50 [3]: < 750 nM
- Emax [4]: 80 to 90%
- AC50 [4]: < 750 nM
- Kd [5]: < 10 nM
- ΔTm at 10 µM [6]: ≥ 10 °C
- ΔTm at 100 µM [6]: ≥ 10 °C

Structure (SMILES): CNC(=O)c1ccc(NCC#Cc2nc3c(N[C@H]4CCN(C)C(=O)C4)cccn3c2SC(F)(F)F)c(OC)c1 [Example 168]
- IC50 [1]: ≥ 10000 nM
- IC50 [2]: < 750 nM
- IC50 [3]: < 750 nM
- Emax [4]: > 90%
- AC50 [4]: 750 to 1500 nM
- Kd [5]: < 10 nM
- ΔTm at 10 µM [6]: ≥ 10 °C
- ΔTm at 100 µM [6]: 5 to 10 °C

Structure (SMILES): CNC(=O)c1ccc(NCC#Cc2nc3c(N[C@@H]4CCN(C)C(=O)C4)cccn3c2SC(F)(F)F)c(OC)c1 [Example 169]
- IC50 [1]: ≥ 10000 nM
- IC50 [2]: > 3000 nM
- IC50 [3]: > 3000 nM
- Emax [4]: 70 to 80%
- AC50 [4]: > 3000 nM
- Kd [5]: 10 to 100 nM
- ΔTm at 10 µM [6]: 5 to 10 °C
- ΔTm at 100 µM [6]: 5 to 10 °C

Structure (SMILES): CNC(=O)c1cc(NCC#Cc2nc3c(N[C@@H]4CCN(C)C[C@@H]4F)cccn3c2SC(F)(F)F)c(OC)cc1F [Example 170]
- IC50 [1]: ≥ 10000 nM
- IC50 [2]: < 750 nM
- IC50 [3]: < 750 nM
- Emax [4]: 80 to 90%
- AC50 [4]: < 750 nM
- Kd [5]: < 10 nM
- ΔTm at 10 µM [6]: ≥ 10 °C
- ΔTm at 100 µM [6]: ≥ 10 °C

Structure (SMILES): CNC(=O)c1ccc(OC)c(NCC#Cc2nc3c(N[C@@H]4CN(C)C[C@@H]4F)cccn3c2SC(F)(F)F)n1 [Example 171]
- IC50 [1]: ≥ 10000 nM
- IC50 [2]: < 750 nM
- IC50 [3]: < 750 nM
- Emax [4]: 70 to 80%
- AC50 [4]: < 750 nM
- Kd [5]: < 10 nM
- ΔTm at 10 µM [6]: ≥ 10 °C
- ΔTm at 100 µM [6]: ≥ 10 °C

Structure (SMILES): CNC(=O)c1ccc(OC)c(NCC#Cc2nc3c(N[C@@H]4CNC[C@@H]4F)cccn3c2SC(F)(F)F)n1 [Example 172]
- IC50 [1]: 5000 to 8000 nM
- IC50 [2]: < 750 nM
- IC50 [3]: < 750 nM
- Emax [4]: 70 to 80%
- AC50 [4]: < 750 nM
- Kd [5]: < 10 nM
- ΔTm at 10 µM [6]: ≥ 10 °C
- ΔTm at 100 µM [6]: ≥ 10 °C

Structure (SMILES): CNC(=O)c1ccc(NCC#Cc2nc3c(NC4CC5(C4)CN(CC(F)F)C5)cccn3c2SC(F)(F)F)c(OC)c1 [Example 173]
- IC50 [1]: 5000 to 8000 nM
- IC50 [2]: 750 to 1500 nM
- IC50 [3]: 1500 to 3000 nM
- Emax [4]: 70 to 80%
- AC50 [4]: 750 to 1500 nM
- Kd [5]: 10 to 100 nM
- ΔTm at 10 µM [6]: 5 to 10 °C
- ΔTm at 100 µM [6]: 5 to 10 °C

Structure (SMILES): CNC(=O)c1ccc(NCC#Cc2nc3c(N[C@H]4CCNC(=O)C4)cccn3c2SC(F)(F)F)c(OC)c1 [Example 174]
- IC50 [1]: ≥ 10000 nM
- IC50 [2]: 1500 to 3000 nM
- IC50 [3]: 750 to 1500 nM
- Emax [4]: 80 to 90%
- AC50 [4]: 1500 to 3000 nM
- Kd [5]: < 10 nM
- ΔTm at 10 µM [6]: ≥ 10 °C
- ΔTm at 100 µM [6]: ≥ 10 °C

Structure (SMILES): CNC(=O)c1ccc(NCC#Cc2nc3c(N[C@@H]4CCNC(=O)C4)cccn3c2SC(F)(F)F)c(OC)c1 [Example 175]
- IC50 [1]: ≥ 10000 nM
- IC50 [2]: > 3000 nM
- IC50 [3]: > 3000 nM
- Emax [4]: < 70%
- AC50 [4]: > 3000 nM
- Kd [5]: 10 to 100 nM
- ΔTm at 10 µM [6]: 5 to 10 °C
- ΔTm at 100 µM [6]: 5 to 10 °C

Structure (SMILES): CNC(=O)c1ccc(NCC#Cc2nc3c(N[C@@H]4CCn5cncc5C4)cccn3c2SC(F)(F)F)c(OC)c1 [Example 176]
- IC50 [1]: 5000 to 8000 nM
- IC50 [2]: 750 to 1500 nM
- IC50 [3]: 1500 to 3000 nM
- Emax [4]: 70 to 80%
- AC50 [4]: 750 to 1500 nM
- Kd [5]: 10 to 100 nM
- ΔTm at 10 µM [6]: 5 to 10 °C
- ΔTm at 100 µM [6]: ≥ 10 °C

Structure (SMILES): CNC(=O)c1ccc(NCC#Cc2nc3c(N[C@H]4CCn5cncc5C4)cccn3c2SC(F)(F)F)c(OC)c1 [Example 177]
- IC50 [1]: 5000 to 8000 nM
- IC50 [2]: < 750 nM
- IC50 [3]: 750 to 1500 nM
- Emax [4]: 80 to 90%
- AC50 [4]: < 750 nM
- Kd [5]: < 10 nM
- ΔTm at 10 µM [6]: ≥ 10 °C
- ΔTm at 100 µM [6]: ≥ 10 °C

Structure (SMILES): CNC(=O)c1ccc(NCC#Cc2nc3c(N[C@H]4CCn5nccc5C4)cccn3c2SC(F)(F)F)c(OC)c1 [Example 178]
- IC50 [1]: 5000 to 8000 nM
- IC50 [2]: 750 to 1500 nM
- IC50 [3]: 750 to 1500 nM
- Emax [4]: < 70%
- AC50 [4]: 1500 to 3000 nM
- Kd [5]: 10 to 100 nM
- ΔTm at 10 µM [6]: 5 to 10 °C
- ΔTm at 100 µM [6]: 5 to 10 °C

Structure (SMILES): CNC(=O)c1ccc(NCC#Cc2nc3c(N[C@@H]4CCn5nccc5C4)cccn3c2SC(F)(F)F)c(OC)c1 [Example 179]
- IC50 [1]: ≥ 10000 nM
- IC50 [2]: 1500 to 3000 nM
- IC50 [3]: 1500 to 3000 nM
- Emax [4]: < 70%
- AC50 [4]: 1500 to 3000 nM
- Kd [5]: 10 to 100 nM
- ΔTm at 10 µM [6]: 5 to 10 °C
- ΔTm at 100 µM [6]: 5 to 10 °C
